Measured values as given in patent publication US5942494A, “Stimulation of gene expression and synthesis of heat shock protein 72/73 (HSP 70)” (The Trustees of Columbia University in the City of New York, priority 1996, dated 1999).
Square brackets hold non-standard residues; d marks the D form. Peptide text beside a SMILES is read from it. Nle = CCCC[C@H](N)C(=O)O

Columns and labels:
Hsp70 = Hsp70 levels by denaturing immunoprecipitation of [3H]-leucine radiolabeled HepG2 cells; type: cell-based, human; conditions: for Hsp70 levels after removal of ALLN: 4-hour preincubation
Procedure: The HepG2 cell culture conditions were maintained as previously described (Dixon, et al., 1991). The cells were seeded into collagen-pre-coated dishes or six-well tissue culture plates and grown in complete medium containing minimum essential medium (MEM) with 0.1 mM nonessential amino acids, 1.0 mM sodium pyruvate, penicillin/streptomycin, and 10% fetal bovine serum. Cells were fed fresh complete medium every 3 days and maintained in a 5% CO2 incubator. All experiments were performed by using exponentially growing cells at 90-95% confluency. For heat shock treatment, the dishes were sealed with Parafilm and immersed in a water bath at 42° C. for indicated durations of time. Cells were incubated with ALLN alone at indicated concentrations or combined with other chemicals at 37° C. Cells were also incubated with different protease inhibitors alone at indicated concentrations or combined with other chemicals at 37° C.
HepG2 cells were preincubated for 4 hours in serum-free MEM and then radiolabeled with ^3 H-Leucine (150 μCi/ml) in a serum-free, leucine-free medium. Preincubation and labeling media each contained either 1.5% bovine serum albumin (BSA) alone, or BSA plus ALLN (40 μg/ml except as otherwise indicated), or BSA plus other protease inhibitors at concentrations indicated in the figure legends. At the indicated times, cells were removed from the 37° C. incubator and placed on ice, washed with cold phosphate-buffer saline (PBS) twice and lysed with lysis buffer containing 1% Triton X-100 (TX100), 1% deoxycholic acid (DOC) and 0.1% SDS in PBS containing proteinase inhibitors: 2 mM phenylmethylsulfonyl fluoride (PMSF); 2 μg/ml ALLN; 2 μg/ml leupeptin; and 2 μg/ml aprotinin. After a 30 min. incubation with lysis buffer at 4° C., the lysates were centrifuged at 14,000 g in a microcentrifuge for 5 min., and the supernatants were adjusted to 1% SDS concentration and boiled for 5 min. to denature the proteins. 1% TX100 was then added to dilute the lysates to a final concentration of 0.1% SDS. Cell lysates containing equal amounts of trichloroacetic acid (TCA)-insoluble radioactivity were used for immunoprecipitations by incubating with individual monoclonal antibody (1 μg/ml) for 2.5 hours at 4° C. Protein-A Sepharose 4B was added afterwards and the lysates incubated for another 1.5 hours at 4° C. to collect the immunocomplexes. After washing four times with 1×NET buffer (containing 0.5% TX100, 0.1% SDS), the immunocomplexes were mixed with sample buffer and boiled for 5 min. Following centrifugation, the supernatants were aliquoted for scintillation counting and for 3-15% gradient polyacrymide gel electrophoresis (SDS-PAGE) . The gels were later subjected to fluorography. All values are presented as the mean ± S.D. from three individual experiments except as otherwise indicated.
Denaturing immunoprecipitation was chosen because Hsp70 is a major cytosolic chaperone protein and it is co-immunoprecipitated with a number of other proteins under non-denaturingconditions (Beckmann, et al., 1990; Zhou, et al., 1995).

[1] = tested on: protein of about 80-90 kDa; experiment: Whole-cell protein pattern of [3H]-leucine-labeled HepG2 lysates on SDS-PAGE; type: cell-based, human; conditions: ALLN-treated versus control HepG2 cells, FIG. 2A
From the text: It was reported (Liu, et al., 1989) that in human diploid fibroblasts, heat shock treatment could induce the synthesis of several members of the Hsp family, including Hsp25, Hsp50, Hsp64, Hsp72, Hsp78, Hsp89 and Hsp98. Short, sublethal episodes of cardiac ischemia increase both Hsp70 and Hsp60 (Marber, et al., 1988). Such complex induction patterns may reflect an increased requirement for several of these Hsps, i.e., the need for several of these Hsps to increase, in order to prevent or protect pre-existing proteins from denaturation. […] It would be interesting to characterize this polypeptide and to identify its roles in the ALLN-induced cellular response.

Structure (SMILES): CCCC[C@@H](C=O)NC(=O)[C@H](CC(C)C)NC(=O)[C@H](CC(C)C)NC(C)=O [ALLN, N-acetyl-leucyl-leucyl-norleucinal] (Ac-Leu-Leu-[Nle]-aldehyde)
- Hsp70 levels after removal of ALLN (Hsp70; end of a 2-hour wash): 25 fold
- Hsp70 levels after removal of ALLN (Hsp70; end of a 6-hour wash): 8 fold
- Hsp70 levels after removal of ALLN (Hsp70; end of an 8-hour wash): 4 fold
- Increment of newly synthesized Hsp70 levels compared with untreated cells (Hsp70; 30 min. labeling, data from several experiments): ~30 fold
- Hsp70 levels induced (Hsp70; ALLN 10 μg/ml, 4 hours pre-treatment, HepG2): more than 9 fold
- Increase of rate of incorporation of [3H]-leucine into Hsp70 (Hsp70; ALLN 40 μg/ml 4 hours preincubation, labeling 10-60 min, every time point): about 25 fold
- Induction of Hsp70 by protease inhibitors (Hsp70; HepG2, 4 hours pre-treatment, ALLN, ALLM 40 μg/ml, leupeptin, pepstatin A 50 μg/ml, E-64d 25 μg/ml, PMSF 1 mM, aprotinin 100 KIU/ml, Benz 1 mM, CIP 200 μM): significantly induce
- Induction of Hsp70 levels above baseline (Hsp70; HepG2 cells and human endothelial cells, maximal induction): up to 30 fold
- Synthesis of a protein of about 80-90 kDa [1]: also increased
